Patent publication US20240075009A1, “TREATMENT OF S[…] PSILOCIN OR PSILOCYBIN” (NEW YORK UNIVERSITY, priority 2021, published 2024)

Assays:
Type in all cases: in vivo, human
cancer patients [1] = experiment: Composite desire for hastened death (DHD) score (5 loss-of-meaning items of the Demoralization Scale), crossover trial with psychotherapy; conditions: for DHD within-subjects reduction relative to baseline: combined groups
Procedure: (§1) 29 participants were randomly assigned to one of two groups: psilocybin (0.3 mg/kg) on the first medication session followed by niacin (250 mg) on the second session (i.e. psilocybin-first group), or niacin (250 mg) on the first medication session followed by psilocybin (0.3 mg/kg) on the second session (i.e. niacin-first group). Psilocybin and niacin were administered in identically appearing gelatin capsules.
(§2) Participants received three 2-hour preparatory psychotherapy sessions in order to review the purpose and intention of participation in the study, treatment goals, and structure of the treatment sessions. Medications were administered in 8-hour treatment sessions which included a discussion of the participant's subjective experience with the treatment team to consolidate the memory of the experience and to begin the process of post-integrative psychotherapy. Participants also received three 2-hour post-medication integration sessions (repeated after the second dosing session) to further consolidate the memory of the experience and to continue the process of psychological integration. All psychotherapy treatment sessions were delivered by a dyadic therapy team trained in a blend of psychotherapies with an evidence base to support their use in cancer patients (drawing upon principles of palliative care therapy, existential psychotherapy, cognitive-behavioural therapy, psychoanalysis therapy, and transpersonal psychology) and were taught about the safety and clinical pharmacology of psilocybin. Each therapy dyad underwent six confidential one-to-one sessions to build their alliance and exchange ideas about psychedelic therapy. The trial employed a crossover design at seven weeks following the first drug administration, with an outcome assessment at 6.5 months (26 weeks) following the second drug administration (i.e. after the crossover).
(§3) Two long-term follow ups (LTFUs) were carried out to assess the continued effect of psilocybin.
(§4) Primary outcomes (suicidal ideation and desire for hastened death) were measured according to the following methods: • Beck Depression Inventory-II (BDI-II) (Beck et al., 1988)— this is a widely used self-report measure to assess depression. The BDI-II comprises 21 questions related to depressive symptoms experienced over the previous two weeks, and is rated on a […] (total score ranges from 0-63). Scores greater than 12 correlate with clinical depression. […] Item #9 on the BDI queries suicidal ideation with the following options: 0=I don't have any thoughts of killing myself; 1=I have thoughts of killing myself, but I would not carry them out; 2=I would like to kill myself; 3=I would kill myself if I had the chance. The BDI-II was assessed at baseline, 1-day prior to dose-1, 8-hours after dose-1, 1-day after dose-1, 2-weeks after dose-1, 6-weeks after dose-1, 7-weeks after dose-1 (corresponding to 1-day prior to dose-2), 1-day after dose-2, 6-weeks after dose-2, 26-weeks after dose-2, and at the 3.2 year and 4.5 year LTFU assessments. • The Brief Symptom Inventory (BSI) (Derogatis 1993) is a 53-item self-report questionnaire that assesses a range of psychiatric symptoms, generating 9 domains (depression, anxiety, phobic anxiety, somatization, obsession-compulsion, interpersonal sensitivity, hostility, paranoid ideation, psychoticism) and a global severity index.

cancer patients [2] = experiment: Composite suicidal ideation (SI) score (BDI-II item #9 + BSI item #9, T-scores), crossover trial with psychotherapy; conditions: for Composite SI within-subject effect size relative to baseline, Cohen's d: psilocybin-1st group
Procedure: as §1, §2, §3, §4

cancer patients [3] = experiment: Primary outcomes DHD and SI taken together: within-subject effect sizes across measures and time points
Procedure: as §1
Participants received three 2-hour preparatory psychotherapy sessions in order to review the purpose and intention of participation in the study, treatment goals, and structure of the treatment sessions. Medications were administered in 8-hour treatment sessions which included a discussion of the participant's subjective experience with the treatment team to consolidate the memory of the experience and to begin the process of post-integrative psychotherapy. […]
Primary outcomes (suicidal ideation and desire for hastened death) were measured according to the following methods: • Beck Depression Inventory-II (BDI-II) (Beck et al., 1988)— this is a widely used self-report measure to assess depression. […] It is measured on a Likert scale: 0=Not at all; 1=Little, 2=Moderately; 3=Quite a bit; 4=Extremely. […]

[4] = after crossover, both dose-sequence groups combined, 6.5-month follow-up, p<0.001

| Structure (SMILES) | Composite DHD score, main effect of time within group (cancer patients [1]; niacin-1st group (250 mg), prior to the crossover, p=0.079, n=5) | Composite suicidality/SI score, main effect of time within group (cancer patients [2]; niacin-1st group (250 mg), prior to the crossover, p=0.065, n=5) | Within-subjects effect sizes across DHD and SI and time points, Cohen's d range (cancer patients [3]; after crossover, combined groups, 6.5 months to 4.5 years) | Within-subject effect sizes across DHD and SI and time points, Cohen's d range (cancer patients [3]; psilocybin-1st group, pre-crossover, statistically significant reductions) | DHD mean score relative to baseline, within psilocybin-1st group (cancer patients [1]; 2-weeks post dose-1, pre-crossover, p=0.005, n=6) | DHD between-group difference, psilocybin-1st vs niacin-1st, Cohen's d (cancer patients [1]; 2-weeks post dose-1, pre-crossover, psilocybin 0.3 mg/kg single dose, n=6 vs n=5) | DHD within-subjects change relative to baseline (cancer patients [1]; [4]) | DHD within-subjects reduction relative to baseline (cancer patients [1]; after crossover, 3.2-year follow-up, p<0.001) | DHD within-subjects reduction relative to baseline (cancer patients [1]; after crossover, 4.5-year follow-up, p<0.001) | Composite SI within-subjects change relative to baseline (cancer patients [2]; [4]) | Composite SI, between-group comparison psilocybin-1st vs niacin-1st (cancer patients [2]; prior to the crossover, psilocybin 0.3 mg/kg, interaction p=0.065, group p=0.614) | Composite SI within-subject effect size relative to baseline, Cohen's d (cancer patients [2]; 2-weeks post-dose 1, p<0.001) | Composite SI within-subject effect size relative to baseline, Cohen's d (cancer patients [2]; 7-weeks post-dose 1, p<0.001) | Composite SI within-subject effect size relative to baseline, Cohen's d (cancer patients [2]; 8-hours post-dose 1, p<0.001) |
| --- | --- | --- | --- | --- | --- | --- | --- | --- | --- | --- | --- | --- | --- | --- |
| O=C(O)c1cccnc1 [niacin] | no significant main effect of time | no significant main effect of time |  |  |  |  |  |  |  |  |  |  |  |  |
| CN(C)CCc1c[nH]c2cccc(OP(=O)(O)O)c12 [psilocybin, [3-(2-dimethylaminoethyl)-1H-indol-4-yl] dihydrogen phosphate] |  |  | 1.51-2.56 | 1.20-3.50 | differed significantly | 1.32 | statistically significant within-subjects reductions | remained significant | remained significant | statistically significant within-subjects reductions | no significant differences between the two groups | 2.40 | 3.50 | 2.40 |
